Results as given in patent publication US8232317B2, “Method for increasing hair growth” (E-L Management Corp., priority 2003, dated 2012).
Several values for one entry are separate records, joined by “and”; a condition that tells them apart may be missing. Equal values may be shown once.

Assays:
[1] = tested on: Normal Human Dermal Papilla Cells; test: DNA synthesis ([H]3-thymidine incorporation) in dermal papilla cells; type: cell-based; conditions: for [H] counts to denote incorporated Thymidine (relative DNA synthesis): individual replicates
Protocol: Methods: Normal Human Dermal Papilla Cells were obtained from Cell Applications Incorporated (San Diego, Calif.) which isolates the dermal papilla cells from hair plugs. Papilla cells were grown to 70% in 24 well plates. […] These treatments were carried out for 24 hours before [H]^3-Thymidine label (1 μCi/ml) was added in each well. DNA synthesis, an indicator of cell proliferation, was measured 24 hours later as a function of [H]^3-Thymidine incorporation.

hair plugs = test: Hair growth in hair plugs exposed to creatine; type: cell-based; conditions: creatine 1 mM; for Actual length of hair plugs / Hair growth normalized to length at day 0: individual plugs; for Average hair growth: n=6
Protocol: Methods: Hair plugs were obtained from East Wood Medical Hair Transplant Surgery (Garden City, N.Y.). These hair plugs were equilibrated in hair plug media as described in the literature (DMEM, 10% FBS, 1% PS, 25 mg insulin, 25 μg fungizone). These hair plugs were measured under the microscope one the first day of arrival and treated with creatine at 1 mM (n=6 for control and creatine group respectively). These hair plugs were then kept in the incubator at 37° C. in 5% CO2. On day 3, 7, & 10, re-treatments were made as well as measurements.

SMILES | % increase compared to control (thymidine uptake / DNA synthesis) ([1]; 0.25 mM) | % increase compared to control (thymidine uptake / DNA synthesis) ([1]; 0.5 mM) | % increase compared to control (thymidine uptake / DNA synthesis) ([1]; 1 mM) | Average thymidine uptake ([1]; 0.25 mM) | [H] counts to denote incorporated Thymidine (relative DNA synthesis) ([1]; 0.25 mM) | Average thymidine uptake ([1]; 0.5 mM) | [H] counts to denote incorporated Thymidine (relative DNA synthesis) ([1]; 0.5 mM) | Average thymidine uptake ([1]; 1 mM) | [H] counts to denote incorporated Thymidine (relative DNA synthesis) ([1]; 1 mM) | other results
Nc1ncnc2c1ncn2[C@@H]1O[C@H](COP(=O)(O)O)[C@@H](O)[C@H]1O [AMP] | 1493% | 1930% | 1449% | – | – | – | – | – | – | –
O=C(O)CC(=O)C(=O)O [Oxaloacetate, oxaloacetic acid (oxaloacetate)] | 22% | 33% | 38% | 22609.37 | 26907.8 counts and 21897.4 counts and 19022.9 counts | 24782.97 | 24483.7 counts and 21467.8 counts and 28397.4 counts | 25586.67 | 25537.3 counts and 25092.4 counts and 26130.3 counts | % increase compared to control (thymidine uptake / DNA synthesis) ([1]; 0.25 mM, listed as Oxal): 21.57%; % increase compared to control (thymidine uptake / DNA synthesis) ([1]; 0.5 mM, listed as Oxal): 33.26%; % increase compared to control (thymidine uptake / DNA synthesis) ([1]; 1 mM, listed as Oxal): 37.58%
Nc1ncnc2c1ncn2[C@@H]1O[C@H](COP(=O)(O)OP(=O)(O)OP(=O)(O)O)[C@@H](O)[C@H]1O [ATP] | 1411% | 1201% | – | – | – | – | – | – | – | –
CN(CC(=O)O)C(=N)N [Creatine, creatine] | 35.66% | 24.78% | 5.697% | 25229.47 | 27441.5 counts and 24848.2 counts and 23398.7 counts | 23206.37 | 21850.6 counts and 23029.9 counts and 24738.6 counts | 19657.6 | 20190.6 counts and 18789.8 counts and 19992.4 counts | % increase compared to control (thymidine uptake / DNA synthesis) ([1]; 0.25 mM, listed as creatine): 36%; % increase compared to control (thymidine uptake / DNA synthesis) ([1]; 0.5 mM, listed as creatine): 25%; % increase compared to control (thymidine uptake / DNA synthesis) ([1]; 1 mM, listed as creatine): 6%; Actual length of hair plugs (hair plugs; Day 0 (baseline)): 3.8 mm and 6.3 mm and 8.1 mm and 8.3 mm and 8.2 mm and 7.6 mm; Average hair growth (hair plugs; Day 0): 0 mm; % increase compared to untreated (hair growth) (hair plugs; Day 3): 96.6%; Actual length of hair plugs (hair plugs; Day 3): 4.7 mm and 7.1 mm and 9.5 mm and 9.1 mm (2×) and 8.5 mm; Hair growth normalized to length at day 0 (hair plugs; Day 3): 0.9 mm (3×) and 0.8 mm (2×) and 1.4 mm; Average hair growth (hair plugs; Day 3): 0.95 mm; % increase compared to untreated (hair growth) (hair plugs; Day 7): 79.5%; Actual length of hair plugs (hair plugs; Day 7): 5 mm and 7 mm and 9.6 mm (2×) and 9.8 mm and 9.2 mm; Hair growth normalized to length at day 0 (hair plugs; Day 7): 1.2 mm and 0.7 mm and 1.5 mm and 1.3 mm and 1.6 mm (2×); Average hair growth (hair plugs; Day 7): 1.32 mm and 1.317 mm; % increase compared to untreated (hair growth) (hair plugs; Day 10): 75.5%; Actual length of hair plugs (hair plugs; Day 10): 5.5 mm and 7 mm and 9.7 mm (2×) and 9.8 mm and 9.2 mm; Hair growth normalized to length at day 0 (hair plugs; Day 10): 1.7 mm and 0.7 mm and 1.6 mm (3×) and 1.4 mm; Average hair growth (hair plugs; Day 10): 1.43 mm and 1.433 mm; Increase in hair growth compared to the untreated plugs (hair plugs; over 10 days): two fold
